Experimental data from patent US6676973B1, “Method of treating ovarian cancers with cadmium” (priority 1995, dated 2004).
pIC50: −log10 of the molar value.

How the values were obtained:
[1] = system: A2780 cells; assay: microculture tetrazolium (MTT) cytotoxicity assay, A2780; type: cell-based, human; settings: for pIC50: read-out: 50% cell kill (IC50)
Protocol: (§1) Human ovarian cancer A2780 and A2780/CP70 cells were cultured in monolayer using RPMI 1640 media supplemented with 10% fetal calf serum, 2 mM L-glutamine, 0.2 U insulin/ml, 100 U/ml penicillin, and 100 μg/ml streptomycin (GIBCO, Grands Island, N.Y.). Cells were grown in a humidified chamber containing a mixture of 5% CO2 and ambient air at 37° C. Sensitivity of A2780 and A2780/CP70 cells to Cd and to cisplatin was assessed by microculture tetrazolium (MTT) assay, as described by Alley et al. Briefly, cells were plated at 1000 cells/well in 96-well plates and drug exposure was made the following day. Cadmium dichloride was initially dissolved in double distilled water (Dh2O) at 1.0 mg/ml (5.46 Mm Cadmium), and dilutions from this solution were made in media to obtain the desired drug treatment concentrations of 1 μM, 10 μM, 20 μM, 40 μM, 100 μM, 150 μM and 200 μM. Cisplatin was dissolved in PBS without Ca^++ or Mg^++ at 1.0 mg/ml (3.33 Mm cisplatin), and dilutions from this solution was made in media to obtain the desired drug treatment concentrations of ranging from 1 μM to 300 μM. Drug treatments were for 1 hour.
(§2) After drug treatments, cells were washed twice with PBS without Ca^++ or Mg^++, treated with fresh drug-free media, and incubated for 5 days. On day 5 after drug treatment, 50 microliter of 3-(4,5-dimethylthiazol-2-yl)-2,5 diphenyltetrazolium bromide (MTT) (400 mg in 200 ml of PBS) were added to each well and incubated for 4 hours at 37° C. Analysis of optical density readings were performed using the VV Deltasoft program on a Macintosh computer (Apple, Inc., Palo Alto, Calif.) and percentage cell growth values were obtained.

[2] = system: A2780/CP70 cells; type: cell-based, human; settings: for pIC50: read-out: 50% cell kill (IC50)
Protocol: as §1, §2

[3] = system: cellular DNA of A2780 cells; assay: Cd-DNA adduct formation and repair after IC50 exposure (AAS), A2780; type: cell-based, human
Protocol: (§3) We examined the formation and removal of Cd-DNA adduct in cellular DNA following 1 hour drug exposures. […] An aliquot of cells was harvested before drug treatment (time zero). Following a 1 hour drug exposure, cells were washed and harvested at. the following time points: 0 hour (immediately at the end of Cd exposure), 1 hour, 6 hour, and 24 hours. Cells were frozen immediately at −20° C. until DNA isolation. Total cellular DNA was isolated and assayed as described above, and total Cd per unit DNA was measured by AAS.

[4] = system: cellular DNA of A2780/CP70 cells; assay: Cd-DNA adduct formation and repair after IC50 exposure (AAS), A2780/CP70; type: cell-based, human
Protocol: as §3

[5] = system: A2780 cells; assay: cellular Cd accumulation after 1 hour exposure to a range of Cd doses (AAS), A2780; type: cell-based, human
Protocol: We examined the cellular Cd accumulation following 1 hour exposures to a range of Cd doses. Cells were grown in T-150 flasks (Costar, Cambridge, Mass.) to 60-80% confluence and then exposed to 10 μM, 50 μM, 100 μM and 200 μM Cd for 1 hour. Cells were harvested, immediately counted and then “wet-ashed” [20]. Total cellular Cd accumulation was measured by atomic absorption spectrometry with Zeeman background correction (AAS), and assessed as nanograms of Cd per million cells (ng Cd/10^6 cells)

[6] = system: liver and lung tumors in B6C3F1 mice; settings: single dose of NDEA followed by cadmium chloride in the drinking water; cited from earlier work
[7] = system: A2780/CP70 cells; assay: cellular drug accumulation and efflux at IC50 dose (AAS), A2780/CP70; type: cell-based, human; settings: for PERCENT ACCUMULATION: IC50 dose; for DRUG UPTAKE: IC50 dose 128 μM
Protocol: (§4) Cells were harvested at time points of 15, 30, 45, and 60 minutes during 1 hour drug exposures, and at 1 and 3 hours after drug exposure. Cells were immediately counted and then wet-ashed. Total cellular drug. accumulation was measured by AAS, and assessed as both nanograms of Cd per million cells (ng Cd/10^6 cells) and as the percentage of the highest levels of total cellular drug.

[8] = system: cellular DNA of A2780/CP70 cells; assay: Cd-DNA adduct formation after 1 hour exposure to a range of Cd doses (AAS), A2780/CP70; type: cell-based, human
Protocol: We examined the formation of Cd-DNA adduct in cellular DNA following 1 hour exposures to a range of Cd drug doses. Cells were grown in T-150 flasks (Costar, Cambridge, Mass.) to 60-80% confluence and then exposed to 0 μM (control), 10 μM, 50 μM, 100 μM and 200 μM Cd for 1 hour. Following a 1 hour drug exposure, cells were washed twice with cold PBS, harvested, and frozen immediately at −20° C. until DNA isolation. Total cellular DNA was isolated on cesium chloride density gradients. DNA was dialyzed against Dh2O with 3-4 changes over 36-48 hours, and quantitated by absorbance at 260 nm. Total Cd per unit DNA was measured by AAS.

[9] = system: A2780 cells; assay: cellular drug accumulation and efflux at IC50 dose (AAS), A2780; type: cell-based, human; settings: for ASSOCIATED DRUG / PERCENT REMOVED (efflux) / PERCENT ACCUMULATION / DRUG UPTAKE: A2780; for PERCENT ACCUMULATION: IC50 dose; for DRUG UPTAKE: IC50 dose 58 μM
Protocol: as §4

[10] = A2780 cells, 1 hour exposure, MTT
[11] = A2780/CP70 cells, 1 hour exposure, MTT
[12] = 0 hours after 1 hour IC50 exposure
[13] = 1 hour after 1 hour IC50 exposure
[14] = 3 hours after 1 hour IC50 exposure
[15] = 3 hours after 1 hour IC50 exposure, listed as Cadmium

## N.N.[Cl][Pt][Cl] [cisplatin, reference compound]
[1]; [10]
  pIC50: 4.80
[1]; on a μM basis, 50% cell kill
  A2780 cells more sensitive to cisplatin than to Cd: 3.6 fold
[2]; [11]
  pIC50: 3.80
[2]; drug exposures associated with 50% cell kill
  increase in resistance of A2780/CP70 cells as compared to A2780 cells: 10 fold

## [Cl][Cd][Cl] [Cd, Cadmium dichloride]
[1]; [10]
  10% cell kill: 0.45 µM
  90% cell kill: 130 µM
  pIC50: 4.24
[3]; 0 hours after 1 hour IC50 (58 μM) exposure
  Cd-DNA ADDUCT: 8.45 ± 3.59 pg Cd/μg DNA
[3]; 0 hours after IC50 exposure
  % REPAIR (amount of peak adduct removed): 0%
[3]; 1 hour after 1 hour IC50 (58 μM) exposure, peak
  Cd-DNA ADDUCT: 11.81±6.59 pg Cd/μg DNA
[3]; 1 hour after 1 hour IC50 (58 μM) exposure, peak, listed as Cadmium
  Cd-DNA ADDUCT: 11.81 ± 6.59 pg Cd/μg DNA
[3]; 1 hour after IC50 exposure
  % REPAIR (amount of peak adduct removed): no removal
[3]; 1 hour after IC50 exposure, listed as Cadmium
  % REPAIR (amount of peak adduct removed): 0%
[3]; 6 hours after 1 hour IC50 (58 μM) exposure
  Cd-DNA ADDUCT: 7.08±3.92 pg Cd/μg DNA
[3]; 6 hours after 1 hour IC50 (58 μM) exposure, listed as Cadmium
  Cd-DNA ADDUCT: 7.08 ± 3.92 pg Cd/μg DNA
[3]; 6 hours after IC50 exposure
  % REPAIR (amount of peak adduct removed): 40%
[3]; 24 hours after 1 hour IC50 (58 μM) exposure
  Cd-DNA ADDUCT: 5.28±3.11 pg Cd/μg DNA
[3]; 24 hours after 1 hour IC50 (58 μM) exposure, listed as Cadmium
  Cd-DNA ADDUCT: 5.28 ± 3.11 pg Cd/μg DNA
[3]; 24 hours after IC50 exposure
  % REPAIR (amount of peak adduct removed): 55%
[4]; 0 hours after 1 hour IC50 (128 μM) exposure, peak
  Cd-DNA ADDUCT: 15.58±3.56 pg Cd/μg DNA
[4]; 0 hours after 1 hour IC50 (128 μM) exposure, peak, listed as Cadmium
  Cd-DNA ADDUCT: 15.58 ± 3.56 pg Cd/μg DNA
[4]; 0 hours after IC50 exposure
  % REPAIR (amount of peak adduct removed): 0%
[4]; 1 hour after 1 hour IC50 (128 μM) exposure
  Cd-DNA ADDUCT: 13.31 ± 4.62 pg Cd/μg DNA
[4]; 1 hour after IC50 exposure
  % REPAIR (amount of peak adduct removed): 15%
[4]; 6 hours after 1 hour IC50 (128 μM) exposure
  Cd-DNA ADDUCT: 12.05±3.98 pg Cd/μg DNA
[4]; 6 hours after 1 hour IC50 (128 μM) exposure, listed as Cadmium
  Cd-DNA ADDUCT: 12.05 ± 3.98 pg Cd/μg DNA
[4]; 6 hours after IC50 exposure
  % REPAIR (amount of peak adduct removed): 23%
[4]; 24 hours after 1 hour IC50 (128 μM) exposure
  Cd-DNA ADDUCT: 8.47±2.85 pg Cd/μg DNA
[4]; 24 hours after 1 hour IC50 (128 μM) exposure, listed as Cadmium
  Cd-DNA ADDUCT: 8.47 ± 2.85 pg Cd/μg DNA
[4]; 24 hours after IC50 exposure
  % REPAIR (amount of peak adduct removed): 46%
[5]; A2780 cells, 1 hour exposure, up to 200 μM
  slope of linear regression, cellular Cd versus Cd dose: 0.024
[5]; from slopes of linear regression
  more cellular drug accumulated per unit dose, A2780 versus A2780/CP70: 4.9 fold
[6]
  incidence and multiplicity of NDEA-induced lung tumors: reduced
  spontaneously-occurring liver tumors: eliminated
[7]; [12]
  ASSOCIATED DRUG: 6.61 ± 1.4 ng Cd/10^6 Cells
[7]; 0 hours after exposure
  PERCENT REMOVED (efflux): 80%
[7]; 15 minutes
  PERCENT ACCUMULATION: 10%
  DRUG UPTAKE: 0.65 ± 0.16 ng Cd/10^6
[7]; 30 minutes
  PERCENT ACCUMULATION: 46%
  DRUG UPTAKE: 3.03 ± 1.11 ng Cd/10^6
[7]; 45 minutes
  PERCENT ACCUMULATION: 66%
  DRUG UPTAKE: 4.33 ± 2.02 ng Cd/10^6
[7]; [13]
  ASSOCIATED DRUG: 4.08 ± 1.4 ng Cd/10^6 Cells
[7]; 1 hour after exposure
  PERCENT REMOVED (efflux): 38%
[7]; 60 minutes
  PERCENT ACCUMULATION: 100%
  DRUG UPTAKE: 6.61±1.48 ng Cd/10^6
[7]; 60 minutes, listed as Cadmium
  DRUG UPTAKE: 6.61 ± 1.48 ng Cd/10^6
[7]; [14]
  ASSOCIATED DRUG: 2.08±0.92 ng Cd/10^6 Cells
[7]; [15]
  ASSOCIATED DRUG: 2.08 ± 0.92 ng Cd/10^6 Cells
[7]; 3 hours after exposure
  PERCENT REMOVED (efflux): 69%
[8]; FIG. 5B, A2780/CP70 versus A2780
  more DNA damage required in resistant A2780/CP70 cells to induce an equivalent level of cell kill: 5-10 lesions per million DNA bases
[8]; from slopes of the equations
  more Cd needed in A2780/CP70 to attain the same level of Cd-DNA damage as in A2780: 1.7 fold
[2]; [11]
  10% cell kill: 28 µM
  90% cell kill: 195 µM
  pIC50: 3.89
[2]; compared with 10-fold resistance to cisplatin
  level of cross-resistance of A2780/CP70 cells to Cd: approximately equal level
[2]; on a μM basis, 50% cell kill
  A2780/CP70 cells more sensitive to Cd (than to cisplatin): 1.25 fold
[9]; [12]
  ASSOCIATED DRUG: 20.85 ± 4.4 ng Cd/10^6 Cells
[9]; 0 hours after exposure
  PERCENT REMOVED (efflux): 90%
[9]; 15 minutes
  PERCENT ACCUMULATION: 33%
  DRUG UPTAKE: 6.89 ± 0.53 ng Cd/10^6
[9]; 30 minutes
  PERCENT ACCUMULATION: 47%
  DRUG UPTAKE: 9.83 ± 1.06 ng Cd/10^6
[9]; 45 minutes
  PERCENT ACCUMULATION: 60%
  DRUG UPTAKE: 12.47 ± 1.95 ng Cd/10^6
[9]; [13]
  ASSOCIATED DRUG: 12.74 ± 3.74 ng Cd/10^6 Cells
[9]; 1 hour after exposure
  PERCENT REMOVED (efflux): 30%
[9]; 60 minutes
  PERCENT ACCUMULATION: 100%
  DRUG UPTAKE: 20.85±4.49 ng Cd/10^6
[9]; 60 minutes, listed as Cadmium
  DRUG UPTAKE: 20.85 ± 4.49 ng Cd/10^6
[9]; [14]
  ASSOCIATED DRUG: 6.56±0.58 ng Cd/10^6 Cells
[9]; [15]
  ASSOCIATED DRUG: 6.56 ± 0.58 ng Cd/10^6 Cells
[9]; 3 hours after exposure
  PERCENT REMOVED (efflux): 69%
[9]; from slopes, respective IC50 doses
  greater rate of Cd accumulation, A2780 versus A2780/CP70: 2.8 fold
